Consider 6 compounds from patent US7935832B2, “Pyrrole and isoindole carboxamide derivatives as P2X7 modulators” (Glaxo Group Limited, priority 2007, dated 2011).

This assay deals with T1, human recombinant P2X7 receptors (Homo sapiens, UniProt Q99572).
T1 construct: expressed in transfected cells; host or cells: HEK293
T1 sequence (Q99572 1-595): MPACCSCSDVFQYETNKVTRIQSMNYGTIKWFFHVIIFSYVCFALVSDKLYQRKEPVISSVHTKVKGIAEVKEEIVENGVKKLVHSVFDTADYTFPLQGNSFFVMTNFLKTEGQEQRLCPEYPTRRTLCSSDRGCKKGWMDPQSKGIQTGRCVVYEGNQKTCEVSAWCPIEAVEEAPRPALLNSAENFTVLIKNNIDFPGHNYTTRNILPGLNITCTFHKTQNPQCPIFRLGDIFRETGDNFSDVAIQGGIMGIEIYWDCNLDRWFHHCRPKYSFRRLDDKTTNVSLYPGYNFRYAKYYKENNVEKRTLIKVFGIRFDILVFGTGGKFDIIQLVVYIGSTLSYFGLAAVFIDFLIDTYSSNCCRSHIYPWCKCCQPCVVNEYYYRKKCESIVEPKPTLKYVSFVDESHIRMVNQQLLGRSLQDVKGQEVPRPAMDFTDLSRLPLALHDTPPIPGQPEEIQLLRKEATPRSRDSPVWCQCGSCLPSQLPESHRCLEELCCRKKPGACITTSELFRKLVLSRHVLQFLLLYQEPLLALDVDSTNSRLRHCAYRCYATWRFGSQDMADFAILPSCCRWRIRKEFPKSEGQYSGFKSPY
The assay can be described thus: Ethidium Accumulation Assay. The format is cell-based. To be noted: HEK293 cells expressing human recombinant P2X7; 1 mM ATP, 100 μM ethidium; 30 min preincubation at room temperature; read-out: Antagonist pIC50 for blocking ATP responses (cellular accumulation of ethidium) (converted). On the procedure: Studies were performed using NaCl assay buffer of the following composition (in mM): 140 mM NaCl, HEPES 10, N-methyl-D-glucamine 5, KCl 5.6, D-glucose 10, CaCl2 0.5 (pH 7.4). HEK293 cells, expressing human recombinant P2X7 receptors, were grown in poly-L-lysine pretreated 96 well plates for 18-24 h. (The cloning of the human P2X7 receptor is described in U.S. Pat. No. 6,133,434). The cells were washed twice with 350 μl of assay buffer before addition of 50 μl of antagonist. The cells were then incubated at room temperature (19-21° C.) for 30 min before addition of ATP and ethidium (100 μM final assay concentration). The ATP concentration was chosen to be close to the EC80 for the receptor type and was 1 mM for studies on the human P2X7 receptor. Incubations were continued for 8 or 16 min and were terminated by addition of 25 μl of 1.3M sucrose containing 5 mM of the P2X7 receptor antagonist reactive black 5 (Aldrich). Cellular accumulation of ethidium was determined by measuring fluorescence (excitation wavelength of 530 nm and emission wavelength of 620 nm) from below the plate with a Canberra Packard Fluorocount (Pangbourne, UK). Antagonist pIC50 values for blocking ATP responses were determined using iterative curve fitting techniques.

As to `CN1C(=O)c2ccccc2C1C(=O)NCc1cccc(C(F)(F)F)c1Cl` (stereo not drawn) [Example 7, N-{[2-chloro-3-(trifluoromethyl)phenyl]methyl}-2-methyl-3-oxo-2,3-dihydro-1H-isoindole-1-carboxamide], the IC50 is ≤ 126 nM.

Consider `CC1=CC(=O)N(C2CC2)C1C(=O)NCc1ccc(Cl)cc1Cl` (stereo not drawn) [Example 1, 1-cyclopropyl-N-[(2,4-dichlorophenyl)methyl]-3-methyl-5-oxo-2,5-dihydro-1H-pyrrole-2-carboxamide], for which the IC50 is ≤ 631 nM.

For `CCN1C(=O)c2ccccc2C1C(=O)NCc1cccc(C(F)(F)F)c1Cl` (stereo not drawn) [Example 4, N-{[2-chloro-3-(trifluoromethyl)phenyl]methyl}-2-ethyl-3-oxo-2,3-dihydro-1H-isoindole-1-carboxamide], the IC50 was ≤ 126 nM.

In the case of `CN1C(=O)c2ccccc2C1C(=O)NCc1ccc(Cl)cc1Cl` (stereo not drawn) [Example 5, N-[(2,4-dichlorophenyl)methyl]-2-methyl-3-oxo-2,3-dihydro-1H-isoindole-1-carboxamide], the IC50 was ≤ 126 nM.

On to `CN1C(=O)c2ccccc2C1C(=O)NCc1ccc(F)cc1Cl` (stereo not drawn) [Example 6, N-[(2-chloro-4-fluorophenyl)methyl]-2-methyl-3-oxo-2,3-dihydro-1H-isoindole-1-carboxamide], for which the IC50 was ≤ 631 nM.

Take `CCN1C(=O)c2ccccc2C1C(=O)NCc1ccc(Cl)cc1Cl` (stereo not drawn) [Example 2, N-[(2,4-dichlorophenyl)methyl]-2-ethyl-3-oxo-2,3-dihydro-1H-isoindole-1-carboxamide]: the IC50 was ≤ 631 nM.
